{"source": "ChEMBL document CHEMBL5154675", "about": "“Design, Synthesis, and Biological Evaluation of 1-(Indolizin-3-yl)ethan-1-ones as CBP Bromodomain Inhibitors for the Treatment of Prostate Cancer” (J Med Chem, 2022)", "key": {"[1]": {"test_system": "LNCaP C4-2B", "experiment": "Antiproliferative activity against human LNCaP C4-2B cells assessed as inhibition of cell growth by Celltiter-Glo assay", "type": "functional, cell-based"}, "[2]": {"target": "T1, CREB-binding protein (Homo sapiens, UniProt Q92793)", "conditions": "dose 200.0 µM, time 30.0 min"}, "[3]": {"target": "T1, CREB-binding protein", "experiment": "Inhibition of His6-tagged human CBP bromodomain (1081 to 1197 residues) expressed in Escherichia coli BL21 (DE3) incubated for 30 mins by HTRF assay"}, "[4]": {"experiment": "Apparent permeability across basolateral to apical side in human Caco-2 cells assessed as drug recovery at 10 uM measured after 2 hrs by LC-MS/MS analysis", "type": "ADME, cell-based", "conditions": "read-out: Drug recovery"}, "[5]": {"experiment": "Apparent permeability across apical to basolateral side in human Caco-2 cells assessed as drug recovery at 10 uM measured after 2 hrs by LC-MS/MS analysis", "type": "ADME, cell-based", "conditions": "read-out: Drug recovery"}, "[6]": {"experiment": "Half life in rat liver microsomes at 1 uM incubated for 45 mins in presence of NADPH by LC-MS/MS analysis", "type": "ADME, Microsome"}, "[7]": {"experiment": "Metabolic stability in rat liver microsomes assessed as parent compound remaining at 1 uM incubated for 45 mins in presence of NADPH by LC-MS/MS analysis", "type": "ADME, Microsome", "conditions": "read-out: Stability"}, "[8]": {"target": "T1, CREB-binding protein", "experiment": "Binding affinity to His6-tagged human CBP bromodomain (1081 to 1197 residues) expressed in Escherichia coli BL21 (DE3) assessed as dissociation constant by ITC analysis"}, "[9]": {"experiment": "Intrinsic clearance in rat liver microsomes at 1 uM incubated for 45 mins in presence of NADPH by LC-MS/MS analysis", "type": "ADME, Microsome", "conditions": "read-out: CLH"}, "[10]": {"experiment": "Hepatic clearance in rat liver microsomes at 1 uM incubated for 45 mins in presence of NADPH by LC-MS/MS analysis", "type": "ADME, Microsome"}, "[11]": {"experiment": "in vitro", "conditions": "rat, liver microsomes", "description": "Hepatic extraction ratio in rat liver microsomes at 1 uM incubated for 45 mins in presence of NADPH by LC-MS/MS analysis"}, "[12]": {"experiment": "Intrinsic clearance in human liver microsomes at 1 uM incubated for 45 mins in presence of NADPH by LC-MS/MS analysis", "type": "ADME, Microsome", "conditions": "read-out: CLH"}, "[13]": {"experiment": "Hepatic clearance in human liver microsomes at 1 uM incubated for 45 mins in presence of NADPH by LC-MS/MS analysis", "type": "ADME, Microsome", "conditions": "read-out: CLH"}, "[14]": {"experiment": "Half life in human liver microsomes at 1 uM incubated for 45 mins in presence of NADPH by LC-MS/MS analysis", "type": "ADME, Microsome"}, "[15]": {"experiment": "Metabolic stability in human liver microsomes assessed as parent compound remaining at 1 uM incubated for 45 mins in presence of NADPH by LC-MS/MS analysis", "type": "ADME, Microsome", "conditions": "read-out: Stability"}, "[16]": {"experiment": "Hepatic extraction ratio in human liver microsomes at 1 uM incubated for 45 mins in presence of NADPH by LC-MS/MS analysis", "type": "ADME, Microsome", "conditions": "read-out: ERH"}}}
{"smiles": "COC(=O)c1cc(NC(=O)c2cc(C(C)=O)n3ccc(OC)cc23)c(F)c(-c2cnn(C)c2)c1", "values": [{"measurement": "IC50", "setting": "[1]", "result": "> 50000", "unit": "nM"}, {"measurement": "ΔTm", "setting": "[2]", "result": 3.3, "unit": "°C"}]}
{"smiles": "CC(=O)c1cc(C(=O)Nc2cc(CO)cc(-c3cnn(C)c3)c2F)c2cc(C)ccn12", "values": [{"measurement": "IC50", "setting": "[1]", "result": "> 50000", "unit": "nM"}, {"measurement": "IC50", "setting": "[3]", "result": 14, "unit": "nM"}, {"measurement": "ΔTm", "setting": "[2]", "result": 6.3, "unit": "°C"}]}
{"smiles": "CC(C)NCC(O)COc1ccc(CC(N)=O)cc1", "note": "(stereo not drawn) [ATENOLOL]", "values": [{"measurement": "recovery at 2 h, 10 µM", "setting": "[4]", "result": 94.2, "unit": "%"}, {"measurement": "recovery at 2 h, 10 µM", "setting": "[5]", "result": 94.8, "unit": "%"}]}
{"smiles": "CCc1ccn2c(C(C)=O)cc(C(=O)Nc3cc(CO)cc(-c4cnn(C)c4)c3F)c2c1", "values": [{"measurement": "IC50", "setting": "[1]", "result": 50000, "unit": "nM"}, {"measurement": "IC50", "setting": "[3]", "result": 21.8, "unit": "nM"}, {"measurement": "ΔTm", "setting": "[2]", "result": 6.3, "unit": "°C"}]}
{"smiles": "CC(=O)c1cc(C(=O)Nc2cc(CO)cc(-c3cnn(C)c3)c2F)c2cc(OC(=O)C(C)(C)C)ccn12", "values": [{"measurement": "IC50", "setting": "[1]", "result": 29600, "unit": "nM"}, {"measurement": "IC50", "setting": "[3]", "result": 42, "unit": "nM"}, {"measurement": "ΔTm", "setting": "[2]", "result": 6, "unit": "°C"}]}
{"smiles": "COc1ccn2c(C(C)=O)cc(C(=O)Nc3cc(C=O)cc(-c4cnn(C)c4)c3F)c2c1", "values": [{"measurement": "IC50", "setting": "[1]", "result": 17400, "unit": "nM"}, {"measurement": "IC50", "setting": "[3]", "result": 13, "unit": "nM"}, {"measurement": "ΔTm", "setting": "[2]", "result": 5.4, "unit": "°C"}]}
{"smiles": "COc1ccn2c(C(C)=O)cc(C(=O)Nc3cc(F)cc(-c4cnn(C)c4)c3F)c2c1", "values": [{"measurement": "IC50", "setting": "[1]", "result": "> 50000", "unit": "nM"}, {"measurement": "IC50", "setting": "[3]", "result": 69.6, "unit": "nM"}, {"measurement": "ΔTm", "setting": "[2]", "result": 6.6, "unit": "°C"}]}
{"smiles": "COc1ccn2c(C(C)=O)cc(C(=O)Nc3cc(C(=O)O)cc(-c4cnn(C)c4)c3F)c2c1", "values": [{"measurement": "half-life at 1 µM", "setting": "[6]", "result": "> 120", "unit": "min"}, {"measurement": "remaining at 0.75 h, 1 µM", "setting": "[7]", "result": 100, "unit": "%"}, {"measurement": "IC50", "setting": "[3]", "result": 9.8, "unit": "nM"}, {"measurement": "Kd", "setting": "[8]", "result": 30, "unit": "nM"}, {"measurement": "ΔTm", "setting": "[2]", "result": 11.4, "unit": "°C"}]}
{"smiles": "Cn1cc(-c2cc(CO)cc(NC(=O)c3cc(C(=O)C(C)(C)C)n4ccc(O)cc34)c2F)cn1", "values": [{"measurement": "IC50", "setting": "[1]", "result": 33900, "unit": "nM"}, {"measurement": "ΔTm", "setting": "[2]", "result": 0.9, "unit": "°C"}]}
{"smiles": "COc1ccc2c(c1)c(C(=O)Nc1cc(C(=O)O)cc(-c3cnn(C)c3)c1F)cn2C(C)=O", "values": [{"measurement": "CLint scaled at 1 µM", "setting": "[9]", "result": 189, "unit": "mL/min/kg"}, {"measurement": "CLhep predicted at 1 µM", "setting": "[10]", "result": 42.7, "unit": "mL/min/kg"}, {"measurement": "half-life at 1 µM", "setting": "[6]", "result": 13.1, "unit": "min"}, {"measurement": "hepatic extraction ratio at 0.75 h, 1 µM", "setting": "[11]", "result": 0.774}, {"measurement": "remaining at 0.75 h, 1 µM", "setting": "[7]", "result": 7.7, "unit": "%"}, {"measurement": "IC50", "setting": "[3]", "result": 178, "unit": "nM"}, {"measurement": "Kd", "setting": "[8]", "result": 165, "unit": "nM"}]}
{"smiles": "O=C(c1ccc(F)cc1)C1CCN(CCn2c(=O)[nH]c3ccccc3c2=O)CC1", "note": "[KETANSERIN]", "values": [{"measurement": "CLint scaled at 1 µM", "setting": "[9]", "result": 159, "unit": "mL/min/kg"}, {"measurement": "CLhep predicted at 1 µM", "setting": "[10]", "result": 41, "unit": "mL/min/kg"}, {"measurement": "half-life at 1 µM", "setting": "[6]", "result": 15.6, "unit": "min"}]}
{"smiles": "CCC(=O)c1cc(C(=O)Nc2cc(CO)cc(-c3cnn(C)c3)c2F)c2cc(O)ccn12", "values": [{"measurement": "IC50", "setting": "[1]", "result": 34900, "unit": "nM"}, {"measurement": "IC50", "setting": "[3]", "result": 78.5, "unit": "nM"}, {"measurement": "ΔTm", "setting": "[2]", "result": 11.1, "unit": "°C"}]}
{"smiles": "Cc1ncc2n1-c1ccc(Cl)cc1C(c1ccccc1F)=NC2", "note": "[MIDAZOLAM]", "values": [{"measurement": "CLint scaled at 1 µM", "setting": "[9]", "result": 750, "unit": "mL/min/kg"}, {"measurement": "CLint scaled at 1 µM", "setting": "[12]", "result": 452, "unit": "mL/min/kg"}, {"measurement": "CLint scaled at 1 µM", "setting": "[13]", "result": 19.9, "unit": "mL/min/kg"}, {"measurement": "half-life at 1 µM", "setting": "[14]", "result": 3.07, "unit": "min"}, {"measurement": "CLhep predicted at 1 µM", "setting": "[10]", "result": 53, "unit": "mL/min/kg"}, {"measurement": "half-life at 1 µM", "setting": "[6]", "result": 1.85, "unit": "min"}, {"measurement": "remaining at 0.75 h, 1 µM", "setting": "[15]", "result": 0.55, "unit": "%"}, {"measurement": "hepatic extraction ratio at 0.75 h, 1 µM", "setting": "[16]", "result": 0.962}, {"measurement": "hepatic extraction ratio at 0.75 h, 1 µM", "setting": "[11]", "result": 0.961}, {"measurement": "remaining at 0.75 h, 1 µM", "setting": "[7]", "result": 4.5, "unit": "%"}]}
{"smiles": "CNC(=O)c1cc(C(=O)Nc2cc(CO)cc(-c3cnn(C)c3)c2F)c2cc(O)ccn12", "values": [{"measurement": "ΔTm", "setting": "[2]", "result": 2.4, "unit": "°C"}]}
{"smiles": "CC(=O)c1cc(C(=O)Nc2cc(CO)cc(-c3cnn(C4CC4)c3)c2F)c2cc(N)ccn12", "values": [{"measurement": "IC50", "setting": "[1]", "result": 8660, "unit": "nM"}, {"measurement": "IC50", "setting": "[3]", "result": 2.96, "unit": "nM"}, {"measurement": "ΔTm", "setting": "[2]", "result": 10.5, "unit": "°C"}]}
